US20060069120A1, “Novel piperidine derivaties as modulators of chemokine receptor ccr5” (priority 2002, published 2006)

Molecular target: recombinant human CCR5 receptor (Homo sapiens, UniProt P51681)
Experiment: MIP-1α radioligand binding assay (scintillation proximity)
Settings: displacement of 0.1 nM iodinated MIP-1α; membranes of Chinese hamster ovary cells expressing recombinant human CCR5; average if tested more than once
Protocol: The ability of compounds to inhibit the binding of MIP-1α was assessed by an in vitro radioligand binding assay. Membranes were prepared from Chinese hamster ovary cells which expressed the recombinant human CCR5 receptor. These membranes were incubated with 0.1 nM iodinated MIP-1α, scintillation proximity beads and various concentrations of the compounds of the invention in 96-well plates. The amount of iodinated MIP-1α bound to the receptor was determined by scintillation counting. Competition curves were obtained for compounds and the concentration of compound which displaced 50% of bound iodinated MIP-1α was calculated (IC50).
In Table IV the results are presented as Pic50 values. A Pic50 value is the negative log (to base 10) of the IC50 result, so an IC50 of 1 μM (that is 1×10^−6M) gives a Pic50 of 6. If a compound was tested more than once then the data below is an average of the probative tests results.

recombinant human CCR5 receptor, sequence (P51681 whole entry): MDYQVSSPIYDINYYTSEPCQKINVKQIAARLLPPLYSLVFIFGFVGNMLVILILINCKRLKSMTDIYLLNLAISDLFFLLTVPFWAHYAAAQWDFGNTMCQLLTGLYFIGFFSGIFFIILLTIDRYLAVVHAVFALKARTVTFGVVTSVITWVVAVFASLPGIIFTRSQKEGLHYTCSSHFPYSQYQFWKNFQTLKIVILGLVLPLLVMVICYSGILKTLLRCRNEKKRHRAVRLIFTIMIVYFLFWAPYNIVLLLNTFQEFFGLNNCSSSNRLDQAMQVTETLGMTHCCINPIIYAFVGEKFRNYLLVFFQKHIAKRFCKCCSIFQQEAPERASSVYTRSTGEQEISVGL

| SMILES | IC50 |
| --- | --- |
| CS(=O)(=O)c1ccc(CNC(=O)CCC2CCN(CCC(c3ccccc3)C3CCN(S(C)(=O)=O)CC3)CC2)cc1 (single isomer, unassigned) [Table V Compound 3] | 89.1 nM |
| CS(=O)(=O)c1ccc(NC(=O)CC2CCN(CCC(c3ccccc3)N3CCN(c4ccccc4)CC3)CC2)cc1 (centres unmarked) [Table I Compound 3] | 12 nM |
| CS(=O)(=O)c1ccc(NC(=O)CC2CCN(CCC(c3ccccc3)C3CCN(C(=O)c4ccc(Cl)cc4)CC3)CC2)cc1 (centres unmarked) [Table I Compound 5] | 1.32 nM |
| CS(=O)(=O)N1CCC(C(CCN2CCC(CC(=O)Nc3ccc(F)cc3)CC2)c2ccccc2)CC1 (centres unmarked) [Table I Compound 6] | 5.62 nM |
| CS(=O)(=O)c1ccc(NC(=O)CC2CCN(CC[C@@H](c3ccccc3)c3ccc(S(C)(=O)=O)cc3)CC2)cc1 [Table IV Compound 1, (S) N-(4-methanesulphonylphenyl)-1-[3-phenyl-3-(4-methanesulphonylphenyl)-propyl]piperidin-4-yl acetamide] | 0.871 nM |
